Marks after values point to notes of the source that are not given here.
Tests used:
[1] = target: T1, Saccharomyces cerevisiae α-glucosidase (Saccharomyces cerevisiae, UniProt P53341); assay: yeast α-glucosidase inhibition assay; format: biochemical; details: S. cerevisiae α-glucosidase
T1 construct: purchased Sigma Chemical Co., St. Louis, MO, USA
Procedure: SPP, SHP (shrimp head powder), and NB were used as the sole sources of C/N with concentrations of 1%, 1% and 0.8%, respectively. Fermentation conditions were set at 30 °C, shaking speed of 150 rpm, 100/250 mL for the medium/flask volume ratio, and 1 mL of bacterial seed solution (OD660nm = 0.38). The inhibition against yeast α-glucosidase was then tested and calculated in % (A) or U/mL (B); the growth of Paenibacillus sp. TKU042 was detected at OD660nm (C). […] Saccharomyces cerevisiae α-glucosidase was used to test aGI activity.
All of the isolated strains were incubated in a 250-mL Erlenmeyer flask with 50 mL of the same medium, but without agar. Fermentation was performed at 37 °C and a 150 rpm shaking speed. After 1–4 days of fermentation, the culture was centrifuged at 500 rpm for 10 min to remove the medium residue. The solution was then centrifuged again at 4000 rpm for 20 min to separate the cells from the culture supernatant. The supernatant was then used to test yeast α-glucosidase inhibitory activity. […] The screening of active bacteria was based on the inhibitory activity of the supernatant.
Three sources of C/N (1% SPP, 1% SHP, and 0.8% NB) were used to cultivate Paenibacillus sp. TKU042; conditions were set at 30 °C, a shaking speed of 150 rpm and a 100/250 mL medium/flask volume ratio for nine days. […]

Rat α-glucosidase = assay: rat intestinal α-glucosidase inhibition assay; format: biochemical
Procedure: To determine rat intestinal α-glucosidase inhibition, the techniques from the previous report were followed, with modifications. One hundred mg of rat-intestinal acetone powder was suspended in 4 mL of 0.1 mol/L potassium phosphate buffer (NPB), pH 7. The suspension was sonicated several times for 12 s at 4 °C and then centrifuged for 20 min at 10,000× g. The residues were twice suspended with 3 mL of 0.1 mol/L NPB at pH 7, as described above. The resulting supernatant was mixed together and dialyzed for 12 h at 4–6 °C, and then used for the assay. The α-glucosidase, sample solutions and buffer were pre-mixed at volumes of 50, 50 and 100 μL, respectively. After pre-incubation at 37 °C for 20 min, the reaction started when 50 μL of p-nitrophenyl glucopyranoside (10 mmol/L) was added to the mixture. After 20 min at 37 °C, 100 μL Na2CO3 solution (1 mol/L) was added to terminate the reaction. The absorbance of the final mixture was measured at 410 nm and used to calculate inhibition (%) using the following equation: α-glucosidase inhibitory activity (%) = (A − B)/A × 100 where “A” is the absorbance of the control (buffer was used instead of sample with the same volume) and “B” is the absorbance of the final mixture containing the sample and α-glucosidase. The IC50 value was defined and determined as per the previous study. […]

ICR mice = assay: diarrhea / ill effects in the sucrose tolerance test; details: FNB 100, 200 or 400 mg, acarbose 12.5 mg, FNB (100, 200 mg) with acarbose 12.5 mg
Procedure: A sucrose solution was orally administered at 3 g/kg bw and blood was sampled and measured after 0.5, 1, 1.5 and 2 h.

[2] = DPPH radical scavenging activity assay
Procedure: One hundred and twenty microliters of each sample (at different concentrations) was mixed with 30 µL of a methanolic solution containing 0.75 mM DPPH radicals in the well of a plate with 96 wells. The mixture was kept in the dark for 30 min before absorbance at 517 nm was measured. Radical scavenging activity was calculated using the following formula: Antioxidant activity (%) = [(AB − AA)/AB] × 100 where AB and AA stand for absorption of the blank sample (t = 0 min) and absorption of the tested sample solution (t = 30 min), respectively. α-Tocopherol dissolved in MeOH was also analyzed as a control.

T1 sequence (P53341 whole entry): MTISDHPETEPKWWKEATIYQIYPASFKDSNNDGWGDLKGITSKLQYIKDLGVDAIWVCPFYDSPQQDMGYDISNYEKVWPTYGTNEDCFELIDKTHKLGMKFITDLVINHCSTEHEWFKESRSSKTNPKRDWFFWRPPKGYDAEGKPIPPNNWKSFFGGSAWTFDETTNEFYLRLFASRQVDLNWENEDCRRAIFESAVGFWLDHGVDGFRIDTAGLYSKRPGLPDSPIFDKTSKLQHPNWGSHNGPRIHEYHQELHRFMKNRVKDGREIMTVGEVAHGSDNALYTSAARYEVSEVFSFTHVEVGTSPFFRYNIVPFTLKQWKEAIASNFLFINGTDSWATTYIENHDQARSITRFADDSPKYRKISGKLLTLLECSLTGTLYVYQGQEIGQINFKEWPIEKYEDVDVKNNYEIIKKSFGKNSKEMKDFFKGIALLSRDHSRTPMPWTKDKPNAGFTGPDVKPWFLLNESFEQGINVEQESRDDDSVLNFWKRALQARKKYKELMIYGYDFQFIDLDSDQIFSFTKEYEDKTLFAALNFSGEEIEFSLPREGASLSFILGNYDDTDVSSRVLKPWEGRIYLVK

| Structure (SMILES) | Maximum Inhibitory Activity [1] [%] | IC50 (Rat α-glucosidase) | Maximum Inhibitory Activity (Rat α-glucosidase) [%] | ill effects (diarrhea), in words (ICR mice) | antioxidant activity IC50 (DPPH radical scavenging) ([2]; DPPH, 30 min, 517 nm) [µg/mL] | antioxidant activity achieved (DPPH) ([2]; maximum activity) |
| --- | --- | --- | --- | --- | --- | --- |
| C[C@H]1O[C@H](O[C@H]2[C@H](O)[C@@H](O)[C@@H](O[C@H]3[C@H](O)[C@@H](O)C(O)O[C@@H]3CO)O[C@@H]2CO)[C@H](O)[C@@H](O)[C@@H]1N[C@H]1C=C(CO)[C@@H](O)[C@H](O)[C@H]1O (stereo partly drawn) [acarbose] | 63 ± 2.5 | 107 ± 2.5 ^c µg/mL | 89 ± 2.4 | No ill effects | – | – |
| Cc1c(C)c2c(c(C)c1O)CC[C@@](C)(CCC[C@H](C)CCC[C@H](C)CCCC(C)C)O2 [α-Tocopherol] | – | – | – | – | 24.7 ± 1.2 | approximately 100% |
